What all share (assay): Minimum inhibitory concentration (MIC), broth dilution
For orientation: Broth dilution looks for growth in wells or tubes with falling amounts of substance.

In assay [1] the test system is S. aureus ATCC 6538. Set-up: species or system Staphylococcus aureus. Conditions: for MIC: Staphylococcus aureus. The procedure: (§1) Minimum inhibitory concentrations (MIC) were determined for individual components and binary formulations as follows. Individual bacterial suspensions of S. aureus (gram positive), E. coli and P. aeruginosa (both gram negative) and individual fungal suspensions of C. albicans and A. niger were prepared as described in Example 1. Each individual suspension was standardized with PBDW to yield a ˜10^8 CFU/mL or ˜10^7 cells/mL for the individual bacteria and fungi, respectively.
(§2) The individual components and binary formulations were diluted in either DI water or propylene glycol (as appropriate for solubility) to yield a 10,000 ppm total starting active solution. From the 10,000 ppm solution, a 1:9 dilution was made in sterile Nutrient Broth to yield a 1,000 ppm active solution. Five mL of the 1,000 ppm dilution was transferred to five mL of sterile Nutrient Broth (NB) to yield a 500 ppm active solution. This dilution scheme was repeated down to 3.90 ppm active. The same dilutions were made in sterile Sabouraud Dextrose Broth (SDB) for the fungal MIC testing. The series of nine active solutions (3.9 ppm˜1000 ppm) was prepared for each of the five microorganisms to be tested.
(§3) From the E. coli suspension, 0.1 mL was added to each of the nine, 5-mL active solutions in NB. Each tube was mixed thoroughly. This was repeated for each of the bacterial suspensions. Similarly, 0.1 mL of the C. albicans suspension was added to each of the nine, 5-mL active solutions in SDB. This was repeated with A. niger in a separate set of dilutions. Each tube was mixed thoroughly. Controls were prepared for each organism by inoculating 5 mL of NB or SDB, as appropriate. All three sets of bacterial tubes were incubated at 35° C. for 48 hours and the two sets of fungal tubes were incubated at 30° C. for 72 and 120 hours. At the end of the incubation period, the tubes were mixed and visually inspected for turbidity compared to the control. The lowest concentration with a lack of turbidity was recorded as the Minimum Inhibitory Concentration (MIC).
(§4) The synergism value is (QA/Qa+QB/Qb). QA is the concentration of component A in the mixture, Qa is the concentration of component A applied singly, QB is the concentration of component B in the mixture, Qb is the concentration of component B applied singly. When the synergism value is less than one, the mixture is synergistic. Values for (QA/Qa+QB/Qb) of 1 and greater than 1 represent an additive effect and an antagonistic effect, respectively.

Assay [2] concerns P. aeruginosa ATCC 9027. Set-up: species or system Pseudomonas aeruginosa. Conditions: for MIC: Pseudomonas aeruginosa. The procedure:
as §1, §2, §3, §4

The subject of assay [3] is E. coli ATCC 8739. On the set-up: species or system Escherichia coli. Conditions: for MIC: Escherichia coli. On the procedure: as §1, §2, §3, §4
Assay [4] has as its system C. albicans ATCC 10231. Set-up: species or system Candida albicans. The procedure: as §1, §2
(§5) From the E. coli suspension, 0.1 mL was added to each of the nine, 5-mL active solutions in NB. […] The lowest concentration with a lack of turbidity was recorded as the Minimum Inhibitory Concentration (MIC). […]

Assay [5] relates to A. niger ATCC 16404. On the set-up: species or system Aspergillus niger. On the procedure:
as §1, §2, §5

Like-named read-outs stand apart in the source and are kept apart here.

For `CCCCCCCCCCCO` [Undecanol], the MIC is above 1000 µg/mL in assay [1] (ATCC6538, S. aureus, read-out: Qa, concentration of component A applied singly (MIC)); above 1000 µg/mL in assay [2] (ATCC9027, P. aeruginosa, read-out: Qa, concentration of component A applied singly (MIC)); above 1000 µg/mL in assay [3] (ATCC8739, E. coli, read-out: Qa, concentration of component A applied singly (MIC)).
For the compound `Cc1cc(CC(C)CC(C)(C)C)n(O)c(=O)c1.NCCO` (stereo not shown) [Piroctone Olamine], the “Qb, concentration of component B applied singly (MIC)” value in assay [4], in assay [1] (S. aureus), in assay [5], in assay [2] (P. aeruginosa) and in assay [3] (E. coli) was 62.5 ppm in each case.
On to `Cn1sccc1=O` [Methylisothiazolinone], for which the “Qa, concentration of component A applied singly (MIC)” value in assay [4] came to 250 ppm; in assay [1] (S. aureus), 250 ppm; in assay [5] it was 500 ppm; in assay [2] (P. aeruginosa), 62.5 ppm; in assay [3] (E. coli) it was 62.5 ppm.
In the case of `CCCCCCC(O)CO` (stereo not shown) [Caprylyl Glycol], the “Qa, concentration of component A applied singly (MIC)” value is above 1000 ppm in assay [1] (S. aureus), above 1000 ppm in assay [2] (P. aeruginosa) and 1000 ppm in assay [3] (E. coli).
As to `CC(=O)C1C(=O)C=C(C)OC1=O` (stereo not shown) [Dehydroacetic acid], the MIC in assay [1] (ATCC6538, read-out: Qb, concentration of component B applied singly (MIC)) was 500 µg/mL; in assay [2] (ATCC9027, read-out: Qb, concentration of component B applied singly (MIC)), 500 µg/mL; in assay [3] (ATCC8739, read-out: Qb, concentration of component B applied singly (MIC)) it was 500 µg/mL.

Source of the values: US9060952B2, “Synergistic preservative blends” (LONZA LTD., priority 2008, dated 2015).
